This note sets out measurements from patent US20170210723A1, “MOLECULES HAVING PESTICIDAL UTILITY, AND INTERMEDIATES, COMPOSITIONS, AND PROCESSES, RELATED THERETO” (priority 2016, published 2017).

What all share (format): in vivo
In series [1] the test system is Yellow Fever Mosquito (Aedes aegypti). Nature of the series: Bioassays on Yellow Fever Mosquito larvae, 96-well plate. To be noted: from 4000 ppm DMSO master plate, about 1 day-old larvae, 3 days. Here is the method: Master plates containing 400 μg of a molecule dissolved in 100 μL of dimethyl sulfoxide (DMSO) (equivalent to a 4000 ppm solution) are used. A master plate of assembled molecules contains 15 μL per well. To this plate, 135 μL of a 90:10 water:acetone mixture is added to each well. A robot (Biomek® NXP Laboratory Automation Workstation) is programmed to dispense 15 μL aspirations from the master plate into an empty 96-well shallow plate (“daughter” plate). There are 6 reps (“daughter” plates) created per master. The created daughter plates are then immediately infested with YFM larvae.
The day before plates are to be treated, mosquito eggs are placed in Millipore water containing liver powder to begin hatching (4 g. into 400 mL). After the daughter plates are created using the robot, they are infested with 220 μL of the liver powder/larval mosquito mixture (about 1 day-old larvae). After plates are infested with mosquito larvae, a non-evaporative lid is used to cover the plate to reduce drying. Plates are held at room temperature for 3 days prior to grading. After 3 days, each well is observed and scored based on mortality. The results are indicated in the table entitled “Table ABC: Biological Results” (See Table Section). AGRICULTURALLY ACCEPTABLE ACID ADDITION SALTS, SALT DERIVATIVES, SOLVATES, ESTER DERIVATIVES, POLYMORPHS, ISOTOPES, AND RADIONUCLIDES

For series [2], the system named is Cabbage Looper (Trichoplusia ni). Nature of the series: Bioassays on CL, 128-well diet tray assay. To be noted: Trichoplusia ni; for mortality at 50 µg/cm2: 168 h, 50 μg/cm^2 on artificial diet, second instar larvae, five to seven days, read-out: CL % Control (or Mortality) rating. Summed up:
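Second-instar larvae (1–5 per well) were fed diet surface-treated with 50 μg/cm^2 compound, eight wells each. After five to seven days at 25° C. under a 14:10 photoperiod, mortality was scored per well and the eight wells averaged.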

Series [3] deals with Beet Armyworm (Spodoptera exigua). The experiment in a line: Bioassays on BAW, 128-well diet tray assay. The note with it: Spodoptera exigua; for mortality at 50 µg/cm2: 168 h, 50 μg/cm^2 on artificial diet, second instar larvae, five to seven days, read-out: BAW % Control (or Mortality) rating.

As to `CSCC[C@@H](NC(=O)c1ccc(/C=C/C(c2cc(Cl)c(Cl)c(Cl)c2)C(F)(F)F)cc1C(F)(F)F)C(=O)NCC(F)(F)F` (stereo partly drawn) [F28, N—((R)-4-(Methylthio)-1-oxo-1-((2,2,2-trifluoroethyl)amino)butan-2-yl)-4-((E)-4,4,4-trifluoro-3-(3,4,5-trichlorophenyl)but-1-en-1-yl)-2-(trifluoromethyl)benzamide], in series [1], the “YFM % Control (or Mortality) rating” value is “A (80-100)”. Besides, the mortality at 50 µg/cm2 in series [2] and in series [3] was 50 to 100% each time.
Take `C[C@H](CSCC(F)(F)F)NC(=O)c1ccc(/C=C/C(c2cc(Cl)c(F)c(Cl)c2)C(F)(F)F)cc1Br` (stereo partly drawn) [F34, 2-Bromo-4-((E)-3-(3,5-dichloro-4-fluorophenyl)-4,4,4-trifluorobut-1-en-1-yl)-N—((R)-1-((2,2,2-trifluoroethyl)thio)propan-2-yl)benzamide]: in series [1], the “YFM % Control (or Mortality) rating” value is recorded as “A (80-100)”. Moreover, the mortality at 50 µg/cm2 in series [2] and in series [3] was 50 to 100% throughout.
As for `C[C@H](CS(=O)(=O)CC(F)(F)F)NC(=O)c1ccc(/C=C/C(c2cc(Cl)c(F)c(Cl)c2)C(F)(F)F)cc1C(F)(F)F` (stereo partly drawn) [F36, 4-((E)-3-(3,5-Dichloro-4-fluorophenyl)-4,4,4-trifluorobut-1-en-1-yl)-N—((R)-1-((2,2,2-trifluoroethyl)sulfonyl)propan-2-yl)-2-(trifluoromethyl)benzamide], the “YFM % Control (or Mortality) rating” value in series [1] is recorded as “A (80-100)”. Also, the mortality at 50 µg/cm2 in series [2] and in series [3] was 50 to 100% each time.
Take `C[C@H](C[S+]([O-])CC(F)(F)F)NC(=O)c1ccc(/C=C/C(c2cc(Cl)c(F)c(Cl)c2)C(F)(F)F)cc1C(F)(F)F` (stereo partly drawn) [F37]: the “YFM % Control (or Mortality) rating” value in series [1] is reported as “A (80-100)”. In addition, the mortality at 50 µg/cm2 in series [2] and in series [3] was 50 to 100% in each case.
With `C[C@H](C[S+]([O-])CC(F)(F)F)NC(=O)c1ccc(/C=C/C(c2cc(Cl)c(Cl)c(Cl)c2)C(F)(F)F)cc1Br` (stereo partly drawn) [F39, 2-Bromo-4-((E)-4,4,4-trifluoro-3-(3,4,5-trichlorophenyl)but-1-en-1-yl)-N-((2R)-1-((2,2,2-trifluoroethyl)sulfinyl)propan-2-yl)benzamide], the “YFM % Control (or Mortality) rating” value in series [1] was “A (80-100)”. For the same molecule, the mortality at 50 µg/cm2 in series [2] and in series [3] was 50 to 100% each time.
Take `Cc1cc(/C=C/C(c2cc(Cl)c(Cl)c(Cl)c2)C(F)(F)F)ccc1C(=O)N[C@H](C)CS(=O)(=O)CC(F)(F)F` (stereo partly drawn) [F40, 2-Methyl-4-((E)-4,4,4-trifluoro-3-(3,4,5-trichlorophenyl)but-1-en-1-yl)-N—((R)-1-((2,2,2-trifluoroethyl)sulfonyl)propan-2-yl)benzamide]: in series [1], the “YFM % Control (or Mortality) rating” value is “A (80-100)”. For the same molecule, the mortality at 50 µg/cm2 in series [2] and in series [3] was 50 to 100% in each case. Moreover, the mortality at 0.05 µg/cm2 in series [2] (0.05 μg/cm^2, read-out: CL Percent control (or mortality)) was determined as 100%; in series [3] (0.05 μg/cm^2, read-out: BAW Percent control (or mortality)), 60%. The mortality at 0.5 µg/cm2 in series [2] (0.5 μg/cm^2, read-out: CL Percent control (or mortality)) was 100%; in series [3] (0.5 μg/cm^2, read-out: BAW Percent control (or mortality)) it was 100%. For the same molecule, the mortality at 5 µg/cm2 in series [2] (5 μg/cm^2, read-out: CL Percent control (or mortality)) turned out to be 100%; in series [3] (5 μg/cm^2, read-out: BAW Percent control (or mortality)), 100%.
As to `C[C@H](CSCC(F)(F)F)NC(=O)c1ccc(/C=C/C(c2cc(Br)c(Cl)c(Br)c2)C(F)(F)F)cc1C(F)(F)F` (stereo partly drawn) [F41, 4-((E)-3-(3,5-Dibromo-4-chlorophenyl)-4,4,4-trifluorobut-1-en-1-yl)-N—((R)-1-((2,2,2-trifluoroethyl)thio)propan-2-yl)-2-(trifluoromethyl)benzamide], in series [1], the “YFM % Control (or Mortality) rating” value is “A (80-100)”. Further, the mortality at 50 µg/cm2 in series [2] and in series [3] was 50 to 100% each time.
Regarding `C[C@H](C[S+]([O-])CC(F)(F)F)NC(=O)c1ccc(/C=C/C(c2cc(Br)c(Cl)c(Br)c2)C(F)(F)F)cc1C(F)(F)F` (stereo partly drawn) [F42, 4-((E)-3-(3,5-Dibromo-4-chlorophenyl)-4,4,4-trifluorobut-1-en-1-yl)-N-((2R)-1-((2,2,2-trifluoroethyl)sulfinyl)propan-2-yl)-2-(trifluoromethyl)benzamide], in series [1], the “YFM % Control (or Mortality) rating” value is “A (80-100)”. The mortality at 50 µg/cm2 in series [2] and in series [3] was 50 to 100% in each case.
With `CC(C)(CSCC(F)(F)F)NC(=O)c1ccc(/C=C/C(c2cc(Cl)c(Cl)c(Cl)c2)C(F)(F)F)cc1C(F)(F)F` (stereo not drawn) [F44, (E)-N-(2-methyl-1-((2,2,2-trifluoroethyl)thio)propan-2-yl)-4-(4,4,4-trifluoro-3-(3,4,5-trichlorophenyl)but-1-en-1-yl)-2-(trifluoromethyl)benzamide], the “YFM % Control (or Mortality) rating” value in series [1] is on record as “A (80-100)”. Further, the mortality at 50 µg/cm2 in series [2] and in series [3] was 50 to 100% in each case.
Consider `C[C@H](CS(=O)(=O)NCC(F)(F)F)NC(=O)c1ccc(/C=C/C(c2cc(Cl)c(Cl)c(Cl)c2)C(F)(F)F)cc1C(F)(F)F` (stereo partly drawn) [F45, 4-((E)-4,4,4-Trifluoro-3-(3,4,5-trichorophenyl)but-1-en-1-yl)-N—((R)-1-(N-(2,2,2-trifluoroethyl)sulfamoyl)propan-2-yl)-2-(trifluoromethyl)benzamide], for which the “YFM % Control (or Mortality) rating” value in series [1] is “A (80-100)”. In addition, the mortality at 50 µg/cm2 in series [2] and in series [3] was 50 to 100% throughout.
On to `Cc1cc(/C=C/C(c2cc(Cl)c(Cl)c(Cl)c2)C(F)(F)F)ccc1C(=O)N[C@H](C)C[S+]([O-])CC(F)(F)F` (stereo partly drawn) [F46, 2-Methyl-4-((E)-4,4,4-trifluoro-3-(3,4,5-trichlorophenyl)but-1-en-1-yl)-N-((2R)-1-((2,2,2-trifluoroethyl)sulfinyl)propan-2-yl)benzamide], for which the “YFM % Control (or Mortality) rating” value in series [1] was “A (80-100)”. Besides, the mortality at 50 µg/cm2 in series [2] and in series [3] was 50 to 100% throughout.
As to `CC(C)(CS(=O)(=O)CC(F)(F)F)NC(=O)c1ccc(/C=C/C(c2cc(Cl)c(Cl)c(Cl)c2)C(F)(F)F)cc1C(F)(F)F` (stereo not drawn) [F48, (E)-N-(2-Methyl-1-((2,2,2-trifluoroethyl)sulfonyl)propan-2-yl)-4-(4,4,4-trifluoro-3-(3,4,5-trichlorophenyl)but-1-en-1-yl)-2-(trifluoromethyl)benzamide], in series [1], the “YFM % Control (or Mortality) rating” value is listed as “A (80-100)”. For the same molecule, the mortality at 50 µg/cm2 in series [2] and in series [3] was 50 to 100% each time.
As to `C[C@H](C[S+]([O-])CC(F)(F)F)NC(=O)c1ccc(/C=C/C(c2cc(Cl)c(Cl)c(Cl)c2)C(F)(F)F)cc1Cl` (stereo partly drawn) [F50, 2-Chloro-4-((E)-4,4,4-trifluoro-3-(3,4,5-trichlorophenyl)but-1-en-1-yl)-N-((2R)-1-((2,2,2-trifluoroethyl)sulfinyl)propan-2-yl)benzamide], the “YFM % Control (or Mortality) rating” value in series [1] is listed as “A (80-100)”. In addition, the mortality at 50 µg/cm2 in series [2] and in series [3] was 50 to 100% in each case.
Regarding `Cc1cc(/C=C/C(c2cc(Cl)c(Cl)c(Cl)c2)C(F)(F)F)ccc1C(=O)N[C@H](C)CSCC(F)(F)F` (stereo partly drawn) [F51, 2-Methyl-4-((E)-4,4,4-trifluoro-3-(3,4,5-trichlorophenyl)but-1-en-1-yl)-N—((R)-1-((2,2,2-trifluoroethyl)thio)propan-2-yl)benzamide], the “YFM % Control (or Mortality) rating” value in series [1] is reported as “A (80-100)”. Further, the mortality at 50 µg/cm2 in series [2] and in series [3] was 50 to 100% throughout.
